≈ marks a conversion by molar mass, not a printed value.
Assays:
Format in all cases: functional
[1] = system: Streptococcus pneumoniae; assay: Antibacterial activity against constitutive macrolide-lincosamide-streptogramin B-resistant Streptococcus pneumoniae B0627 by agar microdilution method
[2] = system: Streptococcus pyogenes; assay: Antibacterial activity against erythromycin A-susceptible Streptococcus pyogenes B0542 by agar microdilution method
[3] = system: Streptococcus pyogenes; assay: Antibacterial activity against constitutive macrolide-lincosamide-streptogramin B-resistant Streptococcus pyogenes B0544 by agar microdilution method
[4] = system: Staphylococcus aureus; assay: Antibacterial activity against constitutive macrolide-lincosamide-streptogramin B-resistant Staphylococcus aureus B0330 by agar microdilution method
[5] = system: Staphylococcus aureus; assay: Antibacterial activity against erythromycin A-susceptible Staphylococcus aureus B0329 by agar microdilution method
[6] = system: Haemophilus influenzae; assay: Antibacterial activity against Haemophilus influenzae B0529 by agar microdilution method
[7] = system: Streptococcus pneumoniae; assay: Antibacterial activity against erythromycin A-susceptible Streptococcus pneumoniae B0541 by agar microdilution method
[8] = system: Moraxella catarrhalis; assay: Antibacterial activity against Moraxella catarrhalis B0324 by agar microdilution method
[9] = system: Staphylococcus aureus; assay: Antibacterial activity against efflux-resistant Staphylococcus aureus B0331 by agar microdilution method
[10] = system: Streptococcus pneumoniae; assay: Antibacterial activity against efflux-resistant Streptococcus pneumoniae B0326 by agar microdilution method
[11] = system: Streptococcus pyogenes; assay: Antibacterial activity against inducible macrolide-lincosamide-streptogramin B-resistant Streptococcus pyogenes B0543 by agar microdilution method
[12] = system: Staphylococcus aureus; assay: Antibacterial activity against inducible macrolide-lincosamide-streptogramin B-resistant Staphylococcus aureus B0538 by agar microdilution method
[13] = system: Streptococcus pyogenes; assay: Antibacterial activity against efflux-resistant Streptococcus pyogenes B0545 by agar microdilution method

CC[C@H]1OC(=O)[C@H](C)[C@@H](O[C@H]2C[C@@](C)(OC)[C@@H](O)[C@H](C)O2)[C@H](C)[C@@H](O[C@@H]2O[C@H](C)C[C@H](N(C)C)[C@H]2O)[C@](C)(O)C[C@@H](C)CN(C)[C@H](C)[C@@H](O)[C@]1(C)O [AZITHROMYCIN]
MIC [1]: > 64 mg/L | MIC [2]: ≤ 0.125 mg/L | MIC [3]: > 64 mg/L | MIC [4]: > 64 mg/L | MIC [5]: 1 mg/L (≈ 1.34 µM) | MIC [6]: 1 mg/L (≈ 1.34 µM) | MIC [7]: ≤ 0.125 mg/L | MIC [8]: 0.25 mg/L (≈ 0.334 µM) | MIC [9]: > 64 mg/L | MIC [10]: 4 mg/L (≈ 5.34 µM) | MIC [11]: 8 mg/L (≈ 10.7 µM) | MIC [12]: > 64 mg/L | MIC [13]: 1 mg/L (≈ 1.34 µM)

CC[C@H]1OC(=O)[C@H](C)C(=O)[C@H](C)[C@@H](O[C@@H]2O[C@H](C)C[C@H](N(C)C)[C@H]2O)[C@](C)(OCC=Cc2cnc3ccccc3c2)C[C@@H](C)C(=O)[C@H](C)[C@H]2NC(=O)O[C@@]21C [CETHROMYCIN]
MIC [1]: ≤ 0.125 mg/L | MIC [2]: ≤ 0.06 mg/L | MIC [3]: 1 mg/L (≈ 1.31 µM) | MIC [4]: > 64 mg/L | MIC [5]: ≤ 0.06 mg/L | MIC [6]: 2 mg/L (≈ 2.61 µM) | MIC [7]: 0.06 mg/L (≈ 0.0783 µM) | MIC [8]: ≤ 0.125 mg/L | MIC [9]: 0.25 mg/L (≈ 0.326 µM) | MIC [10]: ≤ 0.06 mg/L | MIC [11]: ≤ 0.06 mg/L | MIC [12]: 0.25 mg/L (≈ 0.326 µM) | MIC [13]: ≤ 0.125 mg/L

CC[C@H]1OC(=O)[C@H](C)C(=O)[C@H](C)[C@@H](O[C@@H]2O[C@H](C)C[C@H](N(C)C)[C@H]2O)[C@](C)(OC)C[C@@H](C)C(=O)[C@H](C)[C@H]2N(CCCCn3cnc(-c4cccnc4)c3)C(=O)O[C@]12C [TELITHROMYCIN]
MIC [1]: ≤ 0.125 mg/L | MIC [2]: ≤ 0.06 mg/L | MIC [3]: 4 mg/L (≈ 4.93 µM) | MIC [4]: > 64 mg/L | MIC [5]: ≤ 0.125 mg/L | MIC [6]: 2 mg/L (≈ 2.46 µM) | MIC [7]: 0.06 mg/L (≈ 0.0739 µM) | MIC [8]: ≤ 0.125 mg/L | MIC [9]: 0.25 mg/L (≈ 0.308 µM) | MIC [10]: 0.5 mg/L (≈ 0.616 µM) | MIC [11]: ≤ 0.06 mg/L | MIC [12]: 0.5 mg/L (≈ 0.616 µM) | MIC [13]: 0.25 mg/L (≈ 0.308 µM)

Source: ChEMBL document CHEMBL1287771, “Novel hybrids of 15-membered 8a- and 9a-azahomoerythromycin A ketolides and quinolones as potent antibacterials” (2010)
